Test results taken from article PMC9133015 (Nature Communications, 2022).
“And” between values parts separate entries of the source, which are not always exact repeats. Identical values can stand only once. Like-named read-outs stand apart in the source and are kept apart here.

How the values were obtained:
Test in all cases: Kinase inhibitor specificity profiling (Reaction Biology Corporation)
Assay type in all cases: biochemical
Parameters in all cases: % Enzyme Activity (relative to DMSO controls): concentration or dose not given beside the values
[1] = biological target: T1, panel of 370 protein kinases (Homo sapiens, UniProt Q8N5S9); conditions: 2 h, kinase CAMKK1; read-out: % Enzyme Activity (relative to DMSO controls)
T1 construct: purchased Reaction Biology Corporation (assay service)

[2] = biological target: T2, panel of 370 protein kinases (Homo sapiens, UniProt Q15349); conditions: 2 h, kinase RSK3; read-out: % Enzyme Activity (relative to DMSO controls)
T2 construct: purchased Reaction Biology Corporation (assay service)
T2 sequence (Q15349 whole entry): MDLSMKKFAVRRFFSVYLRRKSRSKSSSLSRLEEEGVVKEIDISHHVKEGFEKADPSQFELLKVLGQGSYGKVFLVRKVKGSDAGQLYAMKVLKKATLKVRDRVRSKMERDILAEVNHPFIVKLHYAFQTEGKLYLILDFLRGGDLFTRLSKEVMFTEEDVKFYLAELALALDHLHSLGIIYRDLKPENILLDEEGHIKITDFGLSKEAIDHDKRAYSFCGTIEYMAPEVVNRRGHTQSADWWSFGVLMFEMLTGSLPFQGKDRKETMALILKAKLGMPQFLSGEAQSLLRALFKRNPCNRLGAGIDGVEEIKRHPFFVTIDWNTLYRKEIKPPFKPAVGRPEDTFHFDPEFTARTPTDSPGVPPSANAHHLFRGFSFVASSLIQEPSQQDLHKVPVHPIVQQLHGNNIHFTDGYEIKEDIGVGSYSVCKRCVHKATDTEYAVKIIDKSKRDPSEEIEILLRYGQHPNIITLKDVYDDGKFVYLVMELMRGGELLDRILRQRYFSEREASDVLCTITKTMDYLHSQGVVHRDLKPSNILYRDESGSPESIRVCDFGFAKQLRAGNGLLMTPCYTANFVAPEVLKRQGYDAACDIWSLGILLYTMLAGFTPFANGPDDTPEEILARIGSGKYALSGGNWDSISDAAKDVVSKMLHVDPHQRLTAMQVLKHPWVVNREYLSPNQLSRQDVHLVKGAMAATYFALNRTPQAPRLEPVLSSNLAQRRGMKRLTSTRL

[3] = biological target: T3, panel of 370 protein kinases (Homo sapiens, UniProt Q92630); conditions: 2 h, kinase DYRK2; read-out: % Enzyme Activity (relative to DMSO controls)
T3 construct: purchased Reaction Biology Corporation (assay service)

[4] = biological target: T4, panel of 370 protein kinases (Homo sapiens, UniProt Q99986); conditions: kinase VRK1
T4 construct: purchased Reaction Biology Corporation (assay service)
T4 sequence (Q99986 whole entry): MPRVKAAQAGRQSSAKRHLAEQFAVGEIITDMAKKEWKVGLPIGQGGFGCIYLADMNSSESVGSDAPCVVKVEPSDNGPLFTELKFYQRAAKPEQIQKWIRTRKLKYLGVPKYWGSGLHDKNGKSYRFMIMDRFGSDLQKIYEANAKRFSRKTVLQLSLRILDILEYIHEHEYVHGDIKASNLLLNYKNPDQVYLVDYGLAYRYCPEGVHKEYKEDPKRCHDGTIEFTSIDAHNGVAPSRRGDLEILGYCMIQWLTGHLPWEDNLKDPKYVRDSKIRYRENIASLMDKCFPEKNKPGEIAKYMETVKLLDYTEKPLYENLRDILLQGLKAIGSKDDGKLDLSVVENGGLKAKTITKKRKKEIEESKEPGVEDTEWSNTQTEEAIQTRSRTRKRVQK

[5] = biological target: T5, panel of 370 protein kinases (Homo sapiens, UniProt P29317); conditions: 2 h, kinase EPHA2; read-out: % Enzyme Activity (relative to DMSO controls)
T5 construct: purchased Reaction Biology Corporation (assay service)

[6] = biological target: T6, panel of 370 protein kinases (Homo sapiens, UniProt Q5TCY1); conditions: 2 h, kinase TTBK1; read-out: % Enzyme Activity (relative to DMSO controls)
T6 construct: purchased Reaction Biology Corporation (assay service)

[7] = biological target: T7, panel of 370 protein kinases (Homo sapiens, UniProt P36894); conditions: 2 h, kinase ALK3/BMPR1A; read-out: % Enzyme Activity (relative to DMSO controls)
T7 construct: purchased Reaction Biology Corporation (assay service)

[8] = biological target: T8, panel of 370 protein kinases (Homo sapiens, UniProt P00519); conditions: 2 h, kinase ABL1; read-out: % Enzyme Activity (relative to DMSO controls)
T8 construct: purchased Reaction Biology Corporation (assay service)

[9] = biological target: T9, panel of 370 protein kinases (Homo sapiens, UniProt P54756); conditions: kinase EPHA5
T9 construct: purchased Reaction Biology Corporation (assay service)
T9 sequence (P54756 25-1037): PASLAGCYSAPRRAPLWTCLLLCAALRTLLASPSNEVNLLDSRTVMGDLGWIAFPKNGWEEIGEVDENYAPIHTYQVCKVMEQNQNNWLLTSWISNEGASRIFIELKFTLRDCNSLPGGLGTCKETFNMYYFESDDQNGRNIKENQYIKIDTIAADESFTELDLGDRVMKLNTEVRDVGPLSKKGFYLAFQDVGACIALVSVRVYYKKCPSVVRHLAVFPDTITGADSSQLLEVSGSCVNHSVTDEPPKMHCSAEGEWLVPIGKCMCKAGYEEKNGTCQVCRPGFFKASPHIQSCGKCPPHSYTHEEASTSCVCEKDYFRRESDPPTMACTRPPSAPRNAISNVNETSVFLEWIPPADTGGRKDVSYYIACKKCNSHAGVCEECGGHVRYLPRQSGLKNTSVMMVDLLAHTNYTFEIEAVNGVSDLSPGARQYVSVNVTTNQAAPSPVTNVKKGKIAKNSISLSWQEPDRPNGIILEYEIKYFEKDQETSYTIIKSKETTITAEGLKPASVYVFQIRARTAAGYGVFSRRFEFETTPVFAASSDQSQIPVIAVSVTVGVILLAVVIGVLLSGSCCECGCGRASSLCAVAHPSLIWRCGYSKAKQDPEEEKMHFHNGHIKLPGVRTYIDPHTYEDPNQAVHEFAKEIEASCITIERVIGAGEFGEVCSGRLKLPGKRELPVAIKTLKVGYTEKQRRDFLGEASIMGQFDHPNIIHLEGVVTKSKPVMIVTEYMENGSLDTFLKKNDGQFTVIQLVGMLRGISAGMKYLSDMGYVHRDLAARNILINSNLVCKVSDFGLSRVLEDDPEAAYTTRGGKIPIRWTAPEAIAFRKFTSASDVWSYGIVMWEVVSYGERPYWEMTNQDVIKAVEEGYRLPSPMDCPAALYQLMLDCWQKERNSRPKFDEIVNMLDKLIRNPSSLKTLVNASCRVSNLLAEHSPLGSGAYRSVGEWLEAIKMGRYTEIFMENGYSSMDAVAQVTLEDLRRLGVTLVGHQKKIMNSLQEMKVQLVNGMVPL

[10] = biological target: T10, panel of 370 protein kinases (Homo sapiens, UniProt P11802); conditions: 2 h, read-out: % Enzyme Activity (relative to DMSO controls)
T10 construct: purchased Reaction Biology Corporation (assay service)
T10 sequence (P11802 whole entry): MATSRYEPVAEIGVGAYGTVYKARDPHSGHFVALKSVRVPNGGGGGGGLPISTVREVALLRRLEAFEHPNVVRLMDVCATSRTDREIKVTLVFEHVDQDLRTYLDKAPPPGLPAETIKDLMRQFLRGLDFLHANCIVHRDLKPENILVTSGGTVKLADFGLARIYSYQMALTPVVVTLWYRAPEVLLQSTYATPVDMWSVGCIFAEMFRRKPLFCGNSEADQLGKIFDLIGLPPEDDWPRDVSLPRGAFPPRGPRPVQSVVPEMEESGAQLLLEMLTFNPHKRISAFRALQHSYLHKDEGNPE

[11] = biological target: T11, panel of 370 protein kinases (Homo sapiens, UniProt Q99683); conditions: 2 h, kinase ASK1/MAP3K5; read-out: % Enzyme Activity (relative to DMSO controls)
T11 construct: purchased Reaction Biology Corporation (assay service)

[12] = biological target: T12, panel of 370 protein kinases (Homo sapiens, UniProt P53778); conditions: 2 h, kinase P38g; read-out: % Enzyme Activity (relative to DMSO controls)
T12 construct: purchased Reaction Biology Corporation (assay service)

[13] = biological target: T13, panel of 370 protein kinases (Homo sapiens, UniProt Q13043); conditions: kinase MST1/STK4
T13 construct: purchased Reaction Biology Corporation (assay service)
T13 sequence (Q13043 whole entry): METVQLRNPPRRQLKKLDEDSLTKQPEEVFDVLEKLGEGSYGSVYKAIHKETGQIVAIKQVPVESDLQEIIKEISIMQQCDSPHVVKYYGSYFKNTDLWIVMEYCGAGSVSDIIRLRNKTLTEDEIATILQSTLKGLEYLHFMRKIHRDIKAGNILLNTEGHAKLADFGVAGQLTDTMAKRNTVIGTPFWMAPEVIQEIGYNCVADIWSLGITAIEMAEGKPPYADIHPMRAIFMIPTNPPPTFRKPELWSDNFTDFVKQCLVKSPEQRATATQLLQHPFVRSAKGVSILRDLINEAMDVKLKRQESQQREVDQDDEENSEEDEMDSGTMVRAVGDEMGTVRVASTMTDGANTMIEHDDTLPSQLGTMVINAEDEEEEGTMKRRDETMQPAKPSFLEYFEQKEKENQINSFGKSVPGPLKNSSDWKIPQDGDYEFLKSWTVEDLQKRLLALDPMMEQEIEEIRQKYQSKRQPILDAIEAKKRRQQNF

[14] = biological target: T14, panel of 370 protein kinases (Homo sapiens, UniProt Q15375); conditions: 2 h, kinase EPHA7; read-out: % Enzyme Activity (relative to DMSO controls)
T14 construct: purchased Reaction Biology Corporation (assay service)

[15] = biological target: T15, panel of 370 protein kinases (Homo sapiens, UniProt Q14680); conditions: 2 h, kinase MELK; read-out: % Enzyme Activity (relative to DMSO controls)
T15 construct: purchased Reaction Biology Corporation (assay service)

[16] = biological target: T16, panel of 370 protein kinases (Homo sapiens, UniProt O14920); conditions: 2 h, kinase IKKb/IKBKB; read-out: % Enzyme Activity (relative to DMSO controls)
T16 construct: purchased Reaction Biology Corporation (assay service)

[17] = biological target: T17, panel of 370 protein kinases (Homo sapiens, UniProt P36897); conditions: 2 h, kinase ALK5/TGFBR1; read-out: % Enzyme Activity (relative to DMSO controls)
T17 construct: purchased Reaction Biology Corporation (assay service)

[18] = biological target: T18, panel of 370 protein kinases (Homo sapiens, UniProt Q9UEE5); conditions: 2 h, kinase DRAK1/STK17A; read-out: % Enzyme Activity (relative to DMSO controls)
T18 construct: purchased Reaction Biology Corporation (assay service)

[19] = biological target: T19, panel of 370 protein kinases (Homo sapiens, UniProt Q8IY84); conditions: 2 h, kinase NIM1; read-out: % Enzyme Activity (relative to DMSO controls)
T19 construct: purchased Reaction Biology Corporation (assay service)

[20] = biological target: T20, panel of 370 protein kinases (Homo sapiens, UniProt P29597); conditions: kinase TYK2
T20 construct: purchased Reaction Biology Corporation (assay service)
T20 sequence (P29597 whole entry): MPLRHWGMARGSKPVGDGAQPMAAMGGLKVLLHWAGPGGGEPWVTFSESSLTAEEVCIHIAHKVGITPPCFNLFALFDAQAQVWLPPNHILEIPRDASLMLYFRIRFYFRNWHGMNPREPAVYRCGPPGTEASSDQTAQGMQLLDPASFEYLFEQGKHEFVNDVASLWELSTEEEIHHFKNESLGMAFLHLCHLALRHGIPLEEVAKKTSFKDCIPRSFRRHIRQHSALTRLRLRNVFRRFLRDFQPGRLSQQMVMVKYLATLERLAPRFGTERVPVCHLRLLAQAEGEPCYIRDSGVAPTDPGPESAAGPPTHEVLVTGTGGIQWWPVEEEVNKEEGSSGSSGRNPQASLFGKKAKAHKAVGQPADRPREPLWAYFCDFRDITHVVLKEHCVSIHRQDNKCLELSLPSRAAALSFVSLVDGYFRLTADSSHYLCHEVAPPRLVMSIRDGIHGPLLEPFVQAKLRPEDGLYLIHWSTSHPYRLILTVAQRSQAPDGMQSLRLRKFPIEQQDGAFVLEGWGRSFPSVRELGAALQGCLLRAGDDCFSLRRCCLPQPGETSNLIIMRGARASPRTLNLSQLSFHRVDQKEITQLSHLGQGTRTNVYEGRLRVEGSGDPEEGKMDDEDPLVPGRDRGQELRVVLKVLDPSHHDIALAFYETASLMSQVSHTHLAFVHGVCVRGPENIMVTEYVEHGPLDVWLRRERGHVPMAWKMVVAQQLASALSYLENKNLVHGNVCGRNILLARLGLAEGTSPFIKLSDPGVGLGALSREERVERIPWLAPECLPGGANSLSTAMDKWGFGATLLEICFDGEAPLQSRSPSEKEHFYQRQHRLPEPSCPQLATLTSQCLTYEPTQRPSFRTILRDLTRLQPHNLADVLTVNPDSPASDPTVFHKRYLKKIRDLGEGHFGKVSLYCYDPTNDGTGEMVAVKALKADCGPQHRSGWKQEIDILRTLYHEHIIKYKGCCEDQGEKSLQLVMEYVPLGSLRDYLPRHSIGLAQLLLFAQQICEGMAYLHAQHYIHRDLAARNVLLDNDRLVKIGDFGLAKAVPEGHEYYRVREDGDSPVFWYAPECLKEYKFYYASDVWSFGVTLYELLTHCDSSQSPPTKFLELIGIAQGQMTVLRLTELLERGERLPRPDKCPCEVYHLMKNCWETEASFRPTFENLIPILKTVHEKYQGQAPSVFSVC

[21] = biological target: T21, panel of 370 protein kinases (Homo sapiens, UniProt Q9H093); conditions: kinase SNARK/NUAK2
T21 construct: purchased Reaction Biology Corporation (assay service)
T21 sequence (Q9H093 whole entry): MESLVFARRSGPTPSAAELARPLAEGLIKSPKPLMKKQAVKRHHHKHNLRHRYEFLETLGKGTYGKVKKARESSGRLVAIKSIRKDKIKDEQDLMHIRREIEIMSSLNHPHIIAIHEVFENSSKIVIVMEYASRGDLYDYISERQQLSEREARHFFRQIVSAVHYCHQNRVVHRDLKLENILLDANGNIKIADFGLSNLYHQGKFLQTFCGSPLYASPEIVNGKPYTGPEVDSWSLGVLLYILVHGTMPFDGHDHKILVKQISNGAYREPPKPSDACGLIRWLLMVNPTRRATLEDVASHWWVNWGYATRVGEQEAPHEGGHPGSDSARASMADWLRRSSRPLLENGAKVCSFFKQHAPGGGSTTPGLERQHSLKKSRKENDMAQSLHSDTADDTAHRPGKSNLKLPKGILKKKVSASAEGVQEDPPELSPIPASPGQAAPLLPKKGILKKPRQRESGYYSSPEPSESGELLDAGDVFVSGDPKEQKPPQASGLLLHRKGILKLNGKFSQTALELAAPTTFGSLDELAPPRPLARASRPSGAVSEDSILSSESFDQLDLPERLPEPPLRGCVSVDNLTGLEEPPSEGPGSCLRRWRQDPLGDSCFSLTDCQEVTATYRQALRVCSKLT

[22] = biological target: T22, panel of 370 protein kinases (Homo sapiens, UniProt Q9Y4K4); conditions: 2 h, kinase KHS/MAP4K5; read-out: % Enzyme Activity (relative to DMSO controls)
T22 construct: purchased Reaction Biology Corporation (assay service)

`CCN1CCN(C(=O)c2ccc(Nc3ncc(F)c(-c4ccc5nc(N(C)C)sc5c4)n3)nc2)CC1` [YK-2-69] was tested, and the remaining activity at 1 µM [1] was 95.7%, the remaining activity at 1 µM [2] was 104% and the remaining activity at 1 µM [3] was 5.23%. The “% Enzyme Activity (relative to DMSO controls)” value [4] was 95.92% and 87.82%, the remaining activity at 1 µM [5] was 103% and the remaining activity at 1 µM [6] was 97.4%. For the same compound, the remaining activity at 1 µM [7] was 168%, the remaining activity at 1 µM [8] was 85% and the “% Enzyme Activity (relative to DMSO controls)” value [9] was 97.73% and 95.85%. It also gave a remaining activity at 1 µM ([10]; kinase CDK4/cyclin D1) of 6.13%, a remaining activity at 1 µM ([10]; kinase CDK4/cyclin D3) of 11.2% and a remaining activity at 1 µM [11] of 106%. For the same compound, the remaining activity at 1 µM [12] was 98.1%, the “% Enzyme Activity (relative to DMSO controls)” value [13] was 107.26% and 103.88% and the remaining activity at 1 µM [14] was 83%. The remaining activity at 1 µM [15] was 101%, the remaining activity at 1 µM [16] was 96% and the remaining activity at 1 µM [17] was 115%. The remaining activity at 1 µM [18] was 59%, the remaining activity at 1 µM [19] was 96.9% and the “% Enzyme Activity (relative to DMSO controls)” value [20] was 89.12% and 88.94%. For the same compound, the “% Enzyme Activity (relative to DMSO controls)” value [21] was 95.57% and 95.00% and the remaining activity at 1 µM [22] was 101%.
